Measured values as given in paper PMC9221290, “Alkaloids of Dicranostigma franchetianum (Papaveraceae) and Berberine Derivatives as a New Class of Antimycobacterial Agents” (Biomolecules, 2022).
≈ marks a conversion by molar mass, not a printed value. Like-named read-outs stand apart in the source and are kept apart here.

What was measured:
HepG2 cells [1] = assay: cells; conditions: Homo sapiens, HepG2, 24 h
[2] = test system: Mtb H37Ra ITM-M006710 (ATCC 9431); assay: Antimycobacterial microdilution broth assay (resazurin), Mtb H37Ra; assay type: cell-based, Mycobacterium tuberculosis
[3] = test system: Mycolicibacterium aurum DSM 43999 (ATCC 23366); assay: Antimycobacterial microdilution broth assay (resazurin), M. aurum; assay type: cell-based; conditions: 72 h; for MIC: Mycolicibacterium aurum, read-out: MIC M. aurum, microdilution broth, resazurin, 72 h; for MIC M. aurum: microdilution broth, resazurin
[4] = test system: Mycobacterium kansasii DSM 44162 (ATCC 12478); assay: Antimycobacterial microdilution broth assay (resazurin), M. kansasii; assay type: cell-based; conditions: 96 h; for MIC: Mycobacterium kansasii, read-out: MIC M. kansasii, microdilution broth, resazurin, 96 h
[5] = test system: Mycobacterium avium DSM 44156 (ATCC 25291); assay: Antimycobacterial microdilution broth assay (resazurin), M. avium; assay type: cell-based; conditions: 96 h; for MIC: Mycobacterium avium, read-out: MIC M. avium, microdilution broth, resazurin, 96 h; for MIC M. avium: microdilution broth, resazurin
HepG2 cells [6] = test system: HepG2 cells
[7] = test system: Mycolicibacterium smegmatis DSM 43465 (ATCC 607); assay: Antimycobacterial microdilution broth assay (resazurin), M. smegmatis; assay type: cell-based; conditions: 48 h; for MIC: Mycolicibacterium smegmatis, read-out: MIC M. smegmatis, microdilution broth, resazurin, 48 h; for MIC M. smegmatis: microdilution broth, resazurin
in vitro = conditions: human, % of cell viability compared to control; for viability at 1 µM: HepG2, 1 µM; for viability at 5 µM: HepG2, 5 µM; for viability at 10 µM: HepG2, 10 µM; for viability at 100 µM: HepG2, 100 µM; for viability at 25 µM: HepG2, 25 µM; for viability at 50 µM: HepG2, 50 µM; for viability at 75 µM: HepG2, 75 µM
[8] = read-out: HepG2 IC50, 1. measurement, MTT, 24 h, single measurement 1
[9] = read-out: HepG2 IC50, 2. measurement, MTT, 24 h, single measurement 2
[10] = read-out: HepG2 IC50, 3. measurement, MTT, 24 h, single measurement 3
[11] = read-out: HepG2 IC50, MTT, 24 h incubation
[12] = Mycobacterium tuberculosis, 120 h, microdilution broth, resazurin, 120 h, read-out: MIC Mtb H37Ra
[13] = Mycobacterium tuberculosis, calculated from MIC (µg/mL) and MW, read-out: MIC Mtb H37Ra
[14] = microdilution broth, resazurin, 120 h
[15] = Mycobacterium tuberculosis, 120 h, read-out: MIC Mtb H37Ra, microdilution broth, resazurin, 120 h
[16] = Mycobacterium tuberculosis, read-out: MIC Mtb H37Ra (µM), calculated from MIC (µg/mL) and MW

## COc1ccc2cc3[n+](cc2c1OCc1ccccc1)CCc1cc2c(cc1-3)OCO2 [16a, 9-O-benzylberberine chloride]
HepG2 cells [1]; [8]
  IC50: 29.1 µM
HepG2 cells [1]; [9]
  IC50: 20.8 µM
HepG2 cells [1]; [10]
  IC50: 23.5 µM
HepG2 cells [1]; [11]
  IC50: 24.5 ± 4.25 µM
[2]; [12]
  MIC: 6.25 µg/mL
[2]; [13]
  MIC: 13.9 µM
[3]
  MIC: 3.12 µg/mL
[4]
  MIC: 6.25 µg/mL
[5]
  MIC: 3.12 µg/mL
HepG2 cells [6]
  SI (selectivity index): 1.76
[7]
  MIC: 0.78 µg/mL
In vitro; 1. measurement
  viability at 1 µM: 93.4%
  viability at 5 µM: 81.9%
  viability at 10 µM: 68.9%
  viability at 100 µM: 8.76%
In vitro; 1. measurement, HepG2, 20 µM
  viability at 20 µM: 59.4%
In vitro; 1. measurement, HepG2, 40 µM
  viability at 40 µM: 56.2%
In vitro; 1. measurement, HepG2, 60 µM
  viability at 60 µM: 41.5%
In vitro; 1. measurement, HepG2, 80 µM
  viability at 80 µM: 20.2%
In vitro; 2. measurement
  viability at 1 µM: 87.9%
  viability at 5 µM: 73%
  viability at 10 µM: 59.2%
  viability at 25 µM: 48.9%
  viability at 50 µM: 42.1%
  viability at 75 µM: 31.1%
  viability at 100 µM: 16.6%
In vitro; 3. measurement
  viability at 1 µM: 96.4%
  viability at 5 µM: 76.4%
  viability at 10 µM: 60.7%
  viability at 25 µM: 50.3%
  viability at 50 µM: 44.9%
  viability at 75 µM: 29.6%
  viability at 100 µM: 15.3%

## CN1Cc2c(ccc3c2OCO3)-c2ccc3cc4c(cc3c21)OCO4 [compound 1, dihydrosanguinarine]
[2]; [12]
  MIC: ≥ 500 µg/mL
[2]; [13]
  MIC: ≥ 1500 µM
[3]
  MIC: ≥ 500 µg/mL
[4]
  MIC: 125 µg/mL (≈ 375 µM)
[5]
  MIC: ≥ 500 µg/mL
[7]
  MIC: ≥ 500 µg/mL

## c1cc2c(c3c1C[C@H]1c4cc5c(cc4CCN1C3)OCO5)OCO2 [compound 4, stylopine]
[2]; [12]
  MIC: ≥ 125 µg/mL
[2]; [13]
  MIC: ≥ 387 µM
[3]
  MIC: ≥ 125 µg/mL
[4]
  MIC: ≥ 125 µg/mL
[5]
  MIC: ≥ 125 µg/mL
[7]
  MIC: ≥ 125 µg/mL

## O=C(O)c1cn(C2CC2)c2cc(N3CCNCC3)c(F)cc2c1=O [ciprofloxacin, reference compound]
[2]; [12]
  MIC: 0.125 to 0.25 µg/mL
[2]; [13]
  MIC: 0.75 µM
[2]; [14]
  MIC Mtb H37Ra: 0.25 µg/mL (≈ 0.754 µM)
[3]
  MIC M. aurum: 0.01562 µg/mL (≈ 0.0471 µM)
[3]; listed as CPX
  MIC M. aurum: 0.0078 to 0.0156 µg/mL
[4]
  MIC: 0.25 µg/mL (≈ 0.754 µM)
[5]
  MIC: 0.5 µg/mL (≈ 1.51 µM)
[7]
  MIC: 0.0625 to 0.125 µg/mL (≈ 0.189 to 0.377 µM)
  MIC M. smegmatis: 0.0625 µg/mL (≈ 0.189 µM)

## COc1ccc2c(c1OC)CN(C)CCc1cc3c(cc1C(=O)C2)OCO3 [compound 7, allocryptopine]
[2]; [12]
  MIC: ≥ 250 µg/mL
[2]; [13]
  MIC: ≥ 678 µM
[3]
  MIC: ≥ 250 µg/mL
[4]
  MIC: 250 µg/mL (≈ 677 µM)
[5]
  MIC: ≥ 250 µg/mL
[7]
  MIC: ≥ 250 µg/mL

## protopine [compound 6]
[2]; calculated from MIC (µg/mL) and MW, read-out: MIC Mtb H37Ra
  MIC: ≥1416 µM
[2]; [14]
  MIC Mtb H37Ra: ≥500 µg/mL
[3]
  MIC M. aurum: ≥500 µg/mL
[5]
  MIC M. avium: 250 µg/mL
[7]
  MIC M. smegmatis: ≥500 µg/mL

## COc1ccc2c(c1O)-c1c(OC)c(OC)cc3c1[C@H](C2)N(C)CC3 [compound 10, isocorydine]
[2]; [12]
  MIC: ≥ 500 µg/mL
[2]; [13]
  MIC: ≥ 1430 µM
[3]
  MIC: ≥ 500 µg/mL
[4]
  MIC: 125 µg/mL (≈ 366 µM)
[5]
  MIC: ≥ 500 µg/mL
[7]
  MIC: ≥ 500 µg/mL

## COc1cc2c(cc1OC)-c1c(OC)c(OC)cc3c1[C@H](C2)N(C)CC3 [compound 11, glaucine]
[2]; [15]
  MIC: 125 µg/mL
[2]; [16]
  MIC: ≥ 352 µM
[3]
  MIC: 125 µg/mL (≈ 352 µM)
[4]
  MIC: 62.5 µg/mL (≈ 176 µM)
[5]
  MIC: 125 µg/mL (≈ 352 µM)
[7]
  MIC: ≥ 250 µg/mL

## COc1ccc2cc3[n+](cc2c1OCc1ccccc1C)CCc1cc2c(cc1-3)OCO2 [16b, 9-O-(2-methylbenzyl)berberine chloride]
HepG2 cells [1]; [8]
  IC50: 36 µM
HepG2 cells [1]; [9]
  IC50: 38.6 µM
HepG2 cells [1]; [10]
  IC50: 43.2 µM
HepG2 cells [1]; [11]
  IC50: 39.3 ± 3.62 µM
[2]; [12]
  MIC: 7.81 µg/mL
[2]; [13]
  MIC: 16.9 µM
[3]
  MIC: 7.81 µg/mL
[4]
  MIC: 3.91 µg/mL
[5]
  MIC: 3.91 µg/mL
HepG2 cells [6]
  SI (selectivity index): 2.32
[7]
  MIC: 1.95 µg/mL
In vitro; 1. measurement
  viability at 1 µM: 96%
  viability at 5 µM: 83.6%
  viability at 10 µM: 73%
  viability at 25 µM: 48.6%
  viability at 50 µM: 41.5%
  viability at 75 µM: 39.3%
  viability at 100 µM: 37.5%
In vitro; 2. measurement
  viability at 1 µM: 97.8%
  viability at 5 µM: 87.1%
  viability at 10 µM: 76.6%
  viability at 25 µM: 51.6%
  viability at 50 µM: 42.5%
  viability at 75 µM: 41.1%
  viability at 100 µM: 33.8%
In vitro; 3. measurement, HepG2, 0.1 µM
  viability at 0.1 µM: 99.5%
In vitro; 3. measurement
  viability at 1 µM: 99.4%
  viability at 5 µM: 88.8%
  viability at 10 µM: 76.5%
  viability at 25 µM: 51.6%
  viability at 50 µM: 44.9%
  viability at 75 µM: 42.6%
  viability at 100 µM: 38.5%

## NNC(=O)c1ccncc1 [isoniazid, reference compound]
[2]; [12]
  MIC: 0.125 to 0.25 µg/mL
[2]; [13]
  MIC: 1.82 µM
[2]; [14]
  MIC Mtb H37Ra: 0.25 µg/mL (≈ 1.82 µM)
[3]
  MIC M. aurum: 3.91 µg/mL (≈ 28.5 µM)
[3]; listed as INH
  MIC M. aurum: 1.95 to 3.91 µg/mL
[4]
  MIC: 3.12 to 6.25 µg/mL (≈ 22.8 to 45.6 µM)
[4]; microdilution broth, resazurin
  MIC M. kansasii: 6.25 µg/mL (≈ 45.6 µM)
[5]
  MIC: 500 to 1000 µg/mL (≈ 3650 to 7290 µM)
  MIC M. avium: 500 µg/mL (≈ 3650 µM)
[7]
  MIC: 15.6 to 31.2 µg/mL (≈ 114 to 228 µM)
  MIC M. smegmatis: 31.25 µg/mL (≈ 228 µM)

## CO[C@H]1/C=C/O[C@@]2(C)Oc3c(C)c(O)c4c(O)c(c(/C=N/N5CCN(C)CC5)c(O)c4c3C2=O)NC(=O)/C(C)=C\C=C\[C@H](C)[C@H](O)[C@@H](C)[C@@H](O)[C@@H](C)[C@H](OC(C)=O)[C@@H]1C [rifampicin, reference compound]
[2]; [16]
  MIC: 0.0075 µM
[2]; microdilution broth, resazurin, 120 h, listed as RIF
  MIC Mtb H37Ra: 0.00156 to 0.0031 µg/mL
[3]
  MIC: 0.39 to 0.78 µg/mL (≈ 0.474 to 0.948 µM)
  MIC M. aurum: 0.39 µg/mL (≈ 0.474 µM)

## COc1cccc2c1C(=O)c1c(O)c3c(c(O)c1C2=O)C[C@@](O)(C(=O)CO)C[C@@H]3O[C@H]1C[C@H](N)[C@H](O)[C@H](C)O1 [doxorubicine, reference compound]
HepG2 cells [1]; [11]
  IC50: 30.4 ± 1.74 µM

## COc1cc2c(cc1O)[C@@H]1Cc3ccc(OC)c(OC)c3CN1CC2 [compound 13, isocorypalmine]
[2]; [15]
  MIC: ≥ 250 µg/mL
[2]; [16]
  MIC: ≥ 733 µM
[3]
  MIC: ≥ 250 µg/mL
[4]
  MIC: ≥ 250 µg/mL
[5]
  MIC: ≥ 250 µg/mL
[7]
  MIC: ≥ 250 µg/mL

## COc1cc2c3c(c1O)-c1c(ccc(OC)c1OC)C[C@@H]3N(C)CC2 [compound 12, corydine]
[2]; [12]
  MIC: ≥ 500 µg/mL
[2]; [13]
  MIC: ≥ 1470 µM
[3]
  MIC: 250 µg/mL (≈ 732 µM)
[4]
  MIC: 250 µg/mL (≈ 732 µM)
[5]
  MIC: 62.5 µg/mL (≈ 183 µM)
[7]
  MIC: ≥ 500 µg/mL

## COc1cc2c(cc1O)[C@@H]1Cc3ccc(OC)c(O)c3CN1CC2 [compound 15, scoulerine]
[2]; [12]
  MIC: 250 µg/mL
[2]; [13]
  MIC: 764 µM
[3]
  MIC: 125 µg/mL (≈ 382 µM)
[4]
  MIC: 15.6 µg/mL (≈ 47.7 µM)
[5]
  MIC: 250 µg/mL (≈ 764 µM)
[7]
  MIC: 125 µg/mL (≈ 382 µM)

## COc1cc2c(cc1OC)C(=O)Cc1ccc3c(c1CN(C)CC2)OCO3 [compound 8, cryptopine]
[2]; [12]
  MIC: ≥ 125 µg/mL
[2]; [13]
  MIC: ≥ 339 µM
[3]
  MIC: ≥ 125 µg/mL
[4]
  MIC: ≥ 125 µg/mL
[5]
  MIC: ≥ 125 µg/mL
[7]
  MIC: ≥ 125 µg/mL

## COc1ccc2c(c1OC)CN(C)c1c-2ccc2cc3c(cc12)OCO3 [compound 2, dihydrochelerythrine]
[2]; [12]
  MIC: 250 µg/mL
[2]; [13]
  MIC: 716 µM
[3]
  MIC: 250 µg/mL (≈ 716 µM)
[4]
  MIC: 250 µg/mL (≈ 716 µM)
[5]
  MIC: 62.5 µg/mL (≈ 179 µM)
[7]
  MIC: ≥ 500 µg/mL
